How the values were obtained:
[1] = biological target: T1, TrkA (Mus musculus, UniProt Q3UFB7); test: TrkA activation in cortical neurons from knockout mouse pups; format: cell-based; set-up: endogenous in cells; host or cells: primary cortical neurons from mouse pups
[2] = test system: hippocampal neurons; test: Glutamate-triggered apoptosis in hippocampal neurons (MR(DEVD)2 / condensed nuclei); format: cell-based; conditions: 0.5 μM preincubated 30 min, then 50 μM glutamate 16 h
Method: To create and test reporter cell lines. In order to identify small molecules that mimic BDNF and activate TrkB, TrkB stably transfected murine cell lines are created. The T48 and T62 cell lines are created by transfecting basal forebrain SN56 cells, which express negligible TrkB, with a TrkB expression construct. To test expression of TrkB, the cells are treated with BDNF, which is predicted to result in strong phosphorylation of Trk-490 and Akt activation in comparison to the TrkA NTR stably expressing T17 cell line indicating expression of TrkB. To test resistance to apoptosis, the SN56 cells and the T48 cell line are either untreated or treated with BDNF, and then are subjected to an apoptotic assay. The apoptotic assay involves treating the cells with 0.75 μM Staurosporine for 9 hours, and 1 hour before completing the experiment, the cells are treated with 10 μM MR (DEVD)2. The cells then are fixed with 4% paraformaldehyde for 15 minutes, washed with phosphate buffered saline (PBS), and incubated with Hoechst 33342 for 10 minutes. Cover slides are washed with PBS, mounted, and then the cells are examined using a fluorescent microscope to see which cells turn red upon caspase cleavage.
To compare the apoptosis inhibitory activity of identified active compounds, the compounds are preincubated with SN56 and T48 cells, and subsequently are subjected to the fluorescent apoptotic assay as described above. To examine whether these identified active compounds promote neuronal survival, hippocampal neurons are prepared and the cultures are pretreated with the identified active compounds for 30 minutes, followed by treatment with 50 μM glutamate for 16 hours.
Using a cell-based screen as described above in Example 1 (based on the anti-apoptotic action of TrkB signaling) and the chemical library from the Spectrum Collection (described above), 66 positive hits were generated, four of which were gedunin derivatives. […] In this assay, neurons with both cleaved caspase (MR (DEVD)2 red cells) and condensed nuclei (DAPI staining) were counted as apoptotic cells. […]

[3] = test system: C57BL/6J mice; test: Tone-shock fear conditioning model; format: in vivo, mouse
Method: Following a two-day habituation to testing context, wild-type C57Bl/6J mice (N=28, male, 8-10 weeks old) were fear conditioned in eight identical startle response systems (SR-LAB, SDI) consisting of a nonrestrictive Plexiglas cylinder, 5.5 cm in diameter and 13 cm long, mounted on a Plexiglas platform which was located in a ventilated, sound-attenuated chamber. One hour prior to fear conditioning, mice received […] (N=14, 5 mg/kg, i.p.) or vehicle (N=14, 17% DMSO in PBS). Mice then received 5 tone—footshock pairings, with 30 second 12 kHz, 85 dB tones which co-terminated with the footshocks (intensity of 0.5 mA, 0.5 second) with a 5 minute intertrial interval (ITI), after which they were returned to their homecage. 24 and 48 hrs after training, the mice were tested for freezing in rodent modular test chambers with an inside area of 30.5 cm×24.1 cm×21.0 cm. Three minutes after placing the mouse in the test chamber, fifteen 30 second conditioned stimulus (CS) tones with an ITI of 1.5 min were delivered through a high-frequency speaker attached to the side of each chamber. Percentage time spent freezing during the CS presentations was calculated for each mouse using FreezeFrame (Product Number: ACT-100) (Coulbourn Instruments, Whitehall, Pa.).
To determine whether deoxygeduning would enhance learning in a whole animal model of learning and memory, in which BDNF-dependent TrkB activation was required, a tone-shock fear conditioning model was developed (see FIG. 26). Following habituation to the testing context, 28 adult wild-type, C57BL/6J mice were given systemic injections of deoxygedunin (N=14, 5 mg/kg, i.p.) or vehicle (N=14) 1 hour prior to being subjected to the tone-shock fear conditioning model. […] Mice were then tested, with no additional drug treatment, for cue-conditioned fear in the previously habituated context on the two days following fear acquisition. […] To further explore these effects, individual animals' freezing levels throughout the tone-fear testing sessions were examined. […]

[4] = test system: caspase-3; test: Caspase-3 activation in cortical neurons from knockout mouse pups; format: cell-based
Method: To determine whether an identified active compound selectively activates TrkB receptor and prevents neuronal cell death, cortical neurons are prepared from homozygous pups of TrkB +/− mice, which are mated to the same genotype. The activation of TrkB and down stream indicators of TrkB activation, such as Capase-3, are monitored. To further assess whether an identified active compound blocks neuronal apoptosis in a TrkB dependent manner, cortical neurons are prepared from homozygous pups of […], which are mated to the same genotype. Again, the activation of TrkB and down stream indicators of TrkB activation, such as Capase-3, are monitored.
Additionally, the spontaneous caspase-3 activation in […] was suppressed by deoxygedunin.

[5] = biological target: T1, TrkA; test: TrkA phosphorylation in mouse brain after i.p. injection; format: in vivo; set-up: endogenous in cells; conditions: mice, 5 mg/kg i.p.
[6] = test system: TrkA or TrkB; test: RT-PCR analysis of Trk receptors in mouse brain; format: in vivo; conditions: mouse brain upon deoxygedunin treatment

T1 sequence (Q3UFB7 34-799): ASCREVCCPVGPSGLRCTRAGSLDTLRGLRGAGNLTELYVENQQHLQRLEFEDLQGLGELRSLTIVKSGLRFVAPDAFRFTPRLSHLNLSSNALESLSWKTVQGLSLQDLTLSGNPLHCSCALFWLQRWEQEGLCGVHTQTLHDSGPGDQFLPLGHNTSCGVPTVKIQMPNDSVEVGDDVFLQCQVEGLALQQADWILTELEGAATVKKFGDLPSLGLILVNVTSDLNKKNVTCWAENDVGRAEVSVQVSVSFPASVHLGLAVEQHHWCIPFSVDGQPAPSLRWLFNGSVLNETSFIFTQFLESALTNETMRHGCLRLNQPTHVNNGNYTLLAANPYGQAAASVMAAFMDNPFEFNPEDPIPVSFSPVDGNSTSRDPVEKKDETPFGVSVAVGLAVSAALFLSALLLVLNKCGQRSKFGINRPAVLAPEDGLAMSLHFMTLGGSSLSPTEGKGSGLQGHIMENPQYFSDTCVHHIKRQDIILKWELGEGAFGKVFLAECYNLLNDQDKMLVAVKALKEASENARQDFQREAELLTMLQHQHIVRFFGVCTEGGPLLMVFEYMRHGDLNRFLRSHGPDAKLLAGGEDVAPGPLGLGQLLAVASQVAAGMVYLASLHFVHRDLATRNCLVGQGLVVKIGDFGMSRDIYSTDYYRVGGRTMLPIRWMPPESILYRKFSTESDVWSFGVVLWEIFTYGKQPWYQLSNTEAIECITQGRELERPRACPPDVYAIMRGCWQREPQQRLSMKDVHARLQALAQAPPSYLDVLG

CC(=O)O[C@@H]1C[C@H]2C(C)(C)C(=O)C=C[C@]2(C)[C@H]2CC[C@]3(C)C(=CC(=O)O[C@H]3c3ccoc3)[C@@]21C [deoxygedunin]
TrkA activation ([1]; both wild-type and TrkC knockout neurons): not TrkA activation
TrkA activation ([1]; cortical neurons (pups of TrkB +/− mice)): not TrkA receptor
protective effect (apoptosis inhibitory activity) [2]: most robust protective effect
shock reactivity during fear acquisition training ([3]; 5 mg/kg i.p. 1 hour prior to conditioning, versus vehicle): no difference
average level of tone-dependent conditioned freezing versus vehicle ([3]; 5 mg/kg i.p. 1 hour prior to training, tested on the two following days): significantly different on both testing days
increase in the level of freezing during the first set of CS trials ([3]; 5 mg/kg i.p., each testing day, versus vehicle): 2-3 fold
blockade of glutamate-provoked caspase-3 activation ([4]; TrkB −/− cortical neurons): not TrkB −/− neurons
spontaneous caspase-3 activation ([4]; TrkC −/− neurons): suppressed
glutamate triggered caspase-3 activation ([4]; wild-type and TrkC knockout neuron experiment): diminished
blockade of glutamate-provoked caspase-3 activation ([4]; wild-type cortical neurons): substantially blocked
TrkA phosphorylation in the brain [5]: not TrkA
change of TrkA or TrkB (RT-PCR) [6]: no change of TrkA or TrkB
